Measurements from PubChem BioAssay (NCI).
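Step 1: Grow cells in 96-well plates. Step 2: Expose to compound for 48 hours at 5 concentrations. Step 3: Interpolate endpoints linearly; if unreached, use highest concentration. TGI denotes the concentration required for complete inhibition of growth.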

Legend:
Assay in all cases: DTP human tumour cell line panel, 48 h
[1] = test system: MDA-MB-231 breast
[2] = test system: LOX IMVI melanoma
[3] = test system: OVCAR-4 ovarian
[4] = test system: MCF7 breast
[5] = test system: SK-MEL-2 melanoma
[6] = test system: K-562 leukemia
[7] = test system: HL-60(TB) leukemia
[8] = test system: ACHN renal
[9] = test system: HOP-92 NSCLC
[10] = test system: PC-3 prostate
[11] = test system: SK-OV-3 ovarian
[12] = test system: RPMI-8226 leukemia
[13] = test system: MDA-MB-435

CCOC(=O)c1c(C)n(-c2ccc(Cl)cc2)c2c1cc(O)c1[nH]c3c(c12)CCCC3
TGI [1]: > 100 µM
TGI [2]: > 100 µM
TGI [3]: > 100 µM
TGI [4]: > 100 µM
TGI [5]: 92.9 µM
TGI [6]: > 100 µM
TGI [7]: > 100 µM
TGI [8]: > 100 µM
TGI [9]: > 100 µM
TGI [10]: > 100 µM
TGI [11]: > 100 µM
TGI [12]: > 100 µM
TGI [13]: > 100 µM

CCOC(=O)C(=CNc1ccc(NC2=NCC(C)S2)cc1)C(=O)OCC (stereo not given)
TGI [1]: > 100 µM
TGI [2]: > 85.4 µM
TGI [3]: > 51.8 µM
TGI [4]: > 100 µM
TGI [5]: 50.7 µM
TGI [6]: 4.69 µM
TGI [7]: 16.4 µM
TGI [8]: > 100 µM
TGI [9]: > 86.7 µM
TGI [10]: 62.9 µM
TGI [11]: > 100 µM
TGI [12]: 32.3 µM
TGI [13]: 60.2 µM

CCCCc1ccc(-n2sc3ncc(C)cc3c2=O)cc1
TGI [1]: 44.5 µM
TGI [2]: 72.3 µM
TGI [3]: > 100 µM
TGI [4]: 34.3 µM
TGI [5]: > 100 µM
TGI [6]: > 100 µM
TGI [7]: 32.7 µM
TGI [8]: > 100 µM
TGI [9]: 87.5 µM
TGI [10]: 28.2 µM
TGI [11]: > 100 µM
TGI [12]: 99 µM
TGI [13]: > 100 µM

CC1(c2nc3ccccc3[nH]2)CCC(C(=O)O)C(C)(C)O1 (stereo not given)
TGI [1]: > 100 µM
TGI [2]: > 100 µM
TGI [3]: > 100 µM
TGI [4]: > 100 µM
TGI [5]: > 100 µM
TGI [6]: > 100 µM
TGI [7]: > 100 µM
TGI [8]: > 100 µM
TGI [9]: > 100 µM
TGI [10]: > 100 µM
TGI [11]: > 100 µM
TGI [12]: > 100 µM
TGI [13]: > 100 µM

CC(=O)C1=CN=C2C(=O)N(c3ccccc3)N(C)C12C (stereo not given)
TGI [1]: > 100 µM
TGI [2]: > 100 µM
TGI [3]: > 100 µM
TGI [4]: > 100 µM
TGI [5]: > 100 µM
TGI [6]: > 100 µM
TGI [7]: > 100 µM
TGI [8]: > 100 µM
TGI [9]: > 100 µM
TGI [10]: > 100 µM
TGI [11]: > 100 µM
TGI [12]: > 100 µM
TGI [13]: > 100 µM
